Measurements reported in PubChem BioAssay (NCI).
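Grown in 96-well plates, cells were treated for 48 hours with each compound at five concentrations. Insufficient inhibition: endpoint recorded as highest concentration tested. At the TGI there is no net growth.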

Tests used:
Test in all cases: inhibition of tumour cell growth, NCI panel, 48 h
HOP-62 NSCLC = test system: HOP-62 NSCLC
IGROV1 ovarian = test system: IGROV1 ovarian
ACHN renal = test system: ACHN renal
LOX IMVI melanoma = test system: LOX IMVI melanoma
HCT-116 colon = test system: HCT-116 colon
MOLT-4 leukemia = test system: MOLT-4 leukemia
U251 CNS = test system: U251 CNS
786-0 renal = test system: 786-0 renal
SF-295 CNS = test system: SF-295 CNS
HT29 colon = test system: HT29 colon
HL-60(TB) leukemia = test system: HL-60(TB) leukemia
SK-MEL-2 melanoma = test system: SK-MEL-2 melanoma
NCI-H522 lung = test system: NCI-H522 lung
SF-539 CNS = test system: SF-539 CNS
SK-MEL-5 melanoma = test system: SK-MEL-5 melanoma
T-47D breast = test system: T-47D breast
DU-145 prostate = test system: DU-145 prostate
UO-31 renal = test system: UO-31 renal
NCI/ADR-RES ovarian = test system: NCI/ADR-RES ovarian
MDA-N = test system: MDA-N
MALME-3M melanoma = test system: MALME-3M melanoma
SK-OV-3 ovarian = test system: SK-OV-3 ovarian
UACC-62 melanoma = test system: UACC-62 melanoma
SN12C renal = test system: SN12C renal
PC-3 prostate = test system: PC-3 prostate
NCI-H23 lung = test system: NCI-H23 lung
SW-620 colon = test system: SW-620 colon
SK-MEL-28 melanoma = test system: SK-MEL-28 melanoma
UACC-257 melanoma = test system: UACC-257 melanoma
SF-268 CNS = test system: SF-268 CNS
OVCAR-4 ovarian = test system: OVCAR-4 ovarian
COLO 205 colon = test system: COLO 205 colon
HOP-92 NSCLC = test system: HOP-92 NSCLC
A498 renal = test system: A498 renal
RPMI-8226 leukemia = test system: RPMI-8226 leukemia
OVCAR-5 ovarian = test system: OVCAR-5 ovarian
RXF 393 renal = test system: RXF 393 renal
OVCAR-3 ovarian = test system: OVCAR-3 ovarian
SNB-19 CNS = test system: SNB-19 CNS
EKVX NSCLC = test system: EKVX NSCLC
CAKI-1 renal = test system: CAKI-1 renal
KM12 colon = test system: KM12 colon
CCRF-CEM leukemia = test system: CCRF-CEM leukemia
NCI-H460 lung = test system: NCI-H460 lung
HCT-15 colon = test system: HCT-15 colon
TK-10 renal = test system: TK-10 renal
M14 melanoma = test system: M14 melanoma
MDA-MB-435 = test system: MDA-MB-435
A549 NSCLC = test system: A549 NSCLC
OVCAR-8 ovarian = test system: OVCAR-8 ovarian
K-562 leukemia = test system: K-562 leukemia
HS 578T breast = test system: HS 578T breast
MCF7 breast = test system: MCF7 breast
NCI-H226 lung = test system: NCI-H226 lung
HCC-2998 colon = test system: HCC-2998 colon
MDA-MB-231 breast = test system: MDA-MB-231 breast
SR leukemia = test system: SR leukemia
SNB-75 CNS = test system: SNB-75 CNS
BT-549 breast = test system: BT-549 breast

O=c1[nH]nc(-c2ccccc2)n1/N=C/c1c[nH]c2ccccc12
TGI (HOP-62 NSCLC): > 100 µM
TGI (IGROV1 ovarian): > 100 µM
TGI (ACHN renal): > 100 µM
TGI (LOX IMVI melanoma): > 100 µM
TGI (HCT-116 colon): > 100 µM
TGI (MOLT-4 leukemia): > 100 µM
TGI (U251 CNS): > 100 µM
TGI (786-0 renal): > 100 µM
TGI (SF-295 CNS): > 100 µM
TGI (HT29 colon): > 100 µM
TGI (HL-60(TB) leukemia): > 100 µM
TGI (SK-MEL-2 melanoma): > 100 µM
TGI (NCI-H522 lung): > 100 µM
TGI (SF-539 CNS): > 100 µM
TGI (SK-MEL-5 melanoma): > 100 µM
TGI (T-47D breast): > 100 µM
TGI (DU-145 prostate): > 100 µM
TGI (UO-31 renal): > 100 µM
TGI (NCI/ADR-RES ovarian): > 100 µM
TGI (MDA-N): > 100 µM
TGI (MALME-3M melanoma): > 100 µM
TGI (SK-OV-3 ovarian): > 100 µM
TGI (UACC-62 melanoma): > 100 µM
TGI (SN12C renal): > 100 µM
TGI (PC-3 prostate): > 100 µM
TGI (NCI-H23 lung): > 100 µM
TGI (SW-620 colon): > 100 µM
TGI (SK-MEL-28 melanoma): > 100 µM
TGI (UACC-257 melanoma): > 100 µM
TGI (SF-268 CNS): > 100 µM
TGI (OVCAR-4 ovarian): > 100 µM
TGI (COLO 205 colon): > 100 µM
TGI (HOP-92 NSCLC): > 100 µM
TGI (A498 renal): > 100 µM
TGI (RPMI-8226 leukemia): > 100 µM
TGI (OVCAR-5 ovarian): > 100 µM
TGI (RXF 393 renal): > 100 µM
TGI (OVCAR-3 ovarian): > 100 µM
TGI (SNB-19 CNS): > 100 µM
TGI (EKVX NSCLC): > 100 µM
TGI (CAKI-1 renal): > 100 µM
TGI (KM12 colon): > 100 µM
TGI (CCRF-CEM leukemia): > 100 µM
TGI (NCI-H460 lung): > 100 µM
TGI (HCT-15 colon): > 100 µM
TGI (TK-10 renal): 75.6 µM
TGI (M14 melanoma): > 100 µM
TGI (MDA-MB-435): > 100 µM
TGI (A549 NSCLC): > 100 µM
TGI (OVCAR-8 ovarian): > 100 µM
TGI (K-562 leukemia): > 100 µM
TGI (HS 578T breast): > 100 µM
TGI (MCF7 breast): > 100 µM
TGI (NCI-H226 lung): > 100 µM
TGI (HCC-2998 colon): > 100 µM
TGI (MDA-MB-231 breast): > 100 µM

COc1cc2cc(C(=O)N3C[C@@H](CCl)c4c3cc(N)c3ccccc43)[nH]c2c(OC)c1OC
TGI (IGROV1 ovarian): 0.467 µM
TGI (HCT-116 colon): 0.136 µM
TGI (MOLT-4 leukemia): 1.64 µM
TGI (U251 CNS): > 100 µM
TGI (SF-295 CNS): > 100 µM
TGI (HT29 colon): 1.1 µM
TGI (HL-60(TB) leukemia): > 100 µM
TGI (MDA-N): 0.00153 µM
TGI (SK-OV-3 ovarian): 1.45 µM
TGI (PC-3 prostate): 0.108 µM
TGI (SW-620 colon): > 100 µM
TGI (SK-MEL-28 melanoma): > 100 µM
TGI (SF-268 CNS): > 100 µM
TGI (HOP-92 NSCLC): > 100 µM
TGI (RPMI-8226 leukemia): > 100 µM
TGI (CAKI-1 renal): 0.0364 µM
TGI (KM12 colon): 0.0257 µM
TGI (CCRF-CEM leukemia): > 100 µM
TGI (HCT-15 colon): 1.11 µM
TGI (A549 NSCLC): > 100 µM
TGI (K-562 leukemia): > 100 µM
TGI (HS 578T breast): > 100 µM
TGI (MCF7 breast): 22 µM
TGI (SR leukemia): > 100 µM

Cc1cc(-c2[nH]c(C(=O)O)cc2I)on1
TGI (HOP-62 NSCLC): > 100 µM
TGI (IGROV1 ovarian): > 100 µM
TGI (ACHN renal): > 100 µM
TGI (HCT-116 colon): > 100 µM
TGI (SNB-75 CNS): > 100 µM
TGI (MOLT-4 leukemia): > 100 µM
TGI (U251 CNS): > 100 µM
TGI (786-0 renal): > 100 µM
TGI (SF-295 CNS): > 100 µM
TGI (HT29 colon): > 100 µM
TGI (SK-MEL-2 melanoma): > 100 µM
TGI (NCI-H522 lung): > 100 µM
TGI (SK-MEL-5 melanoma): > 100 µM
TGI (DU-145 prostate): > 100 µM
TGI (UO-31 renal): > 100 µM
TGI (NCI/ADR-RES ovarian): > 100 µM
TGI (MDA-N): > 100 µM
TGI (MALME-3M melanoma): > 100 µM
TGI (SK-OV-3 ovarian): > 100 µM
TGI (UACC-62 melanoma): > 100 µM
TGI (PC-3 prostate): > 100 µM
TGI (NCI-H23 lung): > 100 µM
TGI (SW-620 colon): > 100 µM
TGI (SK-MEL-28 melanoma): > 100 µM
TGI (UACC-257 melanoma): > 100 µM
TGI (SF-268 CNS): > 100 µM
TGI (OVCAR-4 ovarian): > 100 µM
TGI (COLO 205 colon): > 100 µM
TGI (HOP-92 NSCLC): > 100 µM
TGI (A498 renal): > 100 µM
TGI (RPMI-8226 leukemia): > 100 µM
TGI (OVCAR-5 ovarian): > 100 µM
TGI (RXF 393 renal): > 100 µM
TGI (OVCAR-3 ovarian): > 100 µM
TGI (SNB-19 CNS): > 100 µM
TGI (EKVX NSCLC): > 100 µM
TGI (CAKI-1 renal): > 100 µM
TGI (KM12 colon): > 100 µM
TGI (NCI-H460 lung): > 100 µM
TGI (HCT-15 colon): > 100 µM
TGI (TK-10 renal): > 100 µM
TGI (M14 melanoma): > 100 µM
TGI (MDA-MB-435): > 100 µM
TGI (BT-549 breast): > 100 µM
TGI (A549 NSCLC): > 100 µM
TGI (OVCAR-8 ovarian): 81.9 µM
TGI (K-562 leukemia): > 100 µM
TGI (HS 578T breast): > 100 µM
TGI (MCF7 breast): > 100 µM
TGI (HCC-2998 colon): > 100 µM
TGI (MDA-MB-231 breast): > 100 µM

CC12CCC(C(=O)O1)C(C)(C)O2 (stereo unspecified)
TGI (HOP-62 NSCLC): > 100 µM
TGI (IGROV1 ovarian): > 100 µM
TGI (ACHN renal): > 100 µM
TGI (LOX IMVI melanoma): > 100 µM
TGI (HCT-116 colon): > 100 µM
TGI (SNB-75 CNS): > 100 µM
TGI (MOLT-4 leukemia): > 100 µM
TGI (U251 CNS): > 100 µM
TGI (786-0 renal): > 100 µM
TGI (SF-295 CNS): > 100 µM
TGI (HT29 colon): > 100 µM
TGI (HL-60(TB) leukemia): > 100 µM
TGI (SK-MEL-2 melanoma): > 100 µM
TGI (NCI-H522 lung): > 100 µM
TGI (SF-539 CNS): > 100 µM
TGI (UO-31 renal): > 100 µM
TGI (NCI/ADR-RES ovarian): > 100 µM
TGI (MDA-N): > 100 µM
TGI (MALME-3M melanoma): > 100 µM
TGI (SK-OV-3 ovarian): > 100 µM
TGI (UACC-62 melanoma): > 100 µM
TGI (SN12C renal): > 100 µM
TGI (PC-3 prostate): > 100 µM
TGI (NCI-H23 lung): > 100 µM
TGI (SW-620 colon): > 100 µM
TGI (SK-MEL-28 melanoma): > 100 µM
TGI (UACC-257 melanoma): > 100 µM
TGI (SF-268 CNS): > 100 µM
TGI (OVCAR-4 ovarian): > 100 µM
TGI (HOP-92 NSCLC): > 100 µM
TGI (A498 renal): > 100 µM
TGI (RPMI-8226 leukemia): > 100 µM
TGI (OVCAR-5 ovarian): > 100 µM
TGI (RXF 393 renal): > 100 µM
TGI (OVCAR-3 ovarian): > 100 µM
TGI (SNB-19 CNS): > 100 µM
TGI (EKVX NSCLC): > 100 µM
TGI (CAKI-1 renal): > 100 µM
TGI (KM12 colon): > 100 µM
TGI (CCRF-CEM leukemia): > 100 µM
TGI (NCI-H460 lung): > 100 µM
TGI (HCT-15 colon): > 100 µM
TGI (TK-10 renal): > 100 µM
TGI (M14 melanoma): > 100 µM
TGI (MDA-MB-435): > 100 µM
TGI (BT-549 breast): > 100 µM
TGI (A549 NSCLC): > 100 µM
TGI (OVCAR-8 ovarian): > 100 µM
TGI (K-562 leukemia): > 100 µM
TGI (HS 578T breast): > 100 µM
TGI (MCF7 breast): > 100 µM
TGI (SR leukemia): > 100 µM
TGI (NCI-H226 lung): > 100 µM
TGI (HCC-2998 colon): > 100 µM
TGI (MDA-MB-231 breast): > 100 µM
